Results as given in ChEMBL document CHEMBL1144680, “Structure-guided design of aminopyrimidine amides as potent, selective inhibitors of lymphocyte specific kinase: synthesis, structure-activity relationships, and inhibition of in vivo T cell activation” (J Med Chem, 2008).
Active and inactive are the calls of the source. No cut-off for these calls is given here.

Tests used:
[1] = Half life in Sprague-Dawley rat at 0.5 mg/kg, iv; assay type: ADME, organism-based; design: dose 0.5 mg/kg, route intravenous; details: in vivo
Lymphocyte = test: Inhibition of T cell activation in human peripheral blood lymphocytes by mixed lymphocyte reaction; assay type: functional, cell-based
[2] = Volume of distribution at steady state in Sprague-Dawley rat at 0.5 mg/kg, iv; assay type: ADME, organism-based; design: dose 0.5 mg/kg, route intravenous; details: in vivo, read-out: Vdss
[3] = biological target: Tyrosine-protein kinase ITK/TSK (Homo sapiens, UniProt Q08881); test: Inhibition of Itk by HTRF assay
Mus musculus [4] = test: Plasma concentration in BALB/c mouse at 10 mg/kg, po; assay type: ADME, organism-based; design: dose 10 mg/kg, route oral; details: in vivo
Angiopoietin-1 receptor = Angiopoietin-1 receptor (Homo sapiens, UniProt Q02763); test: Inhibition of Tie2 by HTRF assay
Sequence of Angiopoietin-1 receptor (Q02763 whole entry): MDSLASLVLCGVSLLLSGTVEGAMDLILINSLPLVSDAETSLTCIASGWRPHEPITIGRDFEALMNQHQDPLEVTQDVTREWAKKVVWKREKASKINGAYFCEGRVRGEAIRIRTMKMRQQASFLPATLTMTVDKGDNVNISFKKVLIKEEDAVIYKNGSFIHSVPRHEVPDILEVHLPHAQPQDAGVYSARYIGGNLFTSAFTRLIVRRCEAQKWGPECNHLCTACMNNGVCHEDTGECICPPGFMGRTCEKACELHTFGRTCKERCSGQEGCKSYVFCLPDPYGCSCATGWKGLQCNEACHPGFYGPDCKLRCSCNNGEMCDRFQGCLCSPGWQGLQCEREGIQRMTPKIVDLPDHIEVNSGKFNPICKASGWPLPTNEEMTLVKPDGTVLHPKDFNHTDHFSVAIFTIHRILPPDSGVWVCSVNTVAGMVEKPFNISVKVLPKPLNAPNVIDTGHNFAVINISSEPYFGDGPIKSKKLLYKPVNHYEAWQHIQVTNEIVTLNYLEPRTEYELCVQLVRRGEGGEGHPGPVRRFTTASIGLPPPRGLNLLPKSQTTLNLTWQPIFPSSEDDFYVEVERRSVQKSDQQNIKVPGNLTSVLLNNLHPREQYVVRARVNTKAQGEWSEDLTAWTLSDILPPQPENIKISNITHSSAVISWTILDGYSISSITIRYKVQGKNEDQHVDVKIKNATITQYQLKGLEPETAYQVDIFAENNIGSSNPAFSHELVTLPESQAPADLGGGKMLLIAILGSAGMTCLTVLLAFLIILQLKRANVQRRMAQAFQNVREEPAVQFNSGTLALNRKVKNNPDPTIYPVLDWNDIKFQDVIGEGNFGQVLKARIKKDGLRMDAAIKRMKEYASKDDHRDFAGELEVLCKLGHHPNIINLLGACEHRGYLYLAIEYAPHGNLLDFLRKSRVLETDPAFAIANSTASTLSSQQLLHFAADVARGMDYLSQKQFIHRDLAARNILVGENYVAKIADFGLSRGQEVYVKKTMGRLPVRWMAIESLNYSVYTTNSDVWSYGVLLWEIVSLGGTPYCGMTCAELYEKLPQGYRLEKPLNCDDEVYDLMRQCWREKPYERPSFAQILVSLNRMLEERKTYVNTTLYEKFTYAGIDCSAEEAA

Mus musculus [5] = test: Inhibition of anti-CD3-induced IL2 production in BALB/c mouse at 10 mg/kg, po by ELISA relative to control; assay type: functional
[6] = biological target: Macrophage-stimulating protein receptor (Homo sapiens, UniProt Q04912); test: Inhibition of RON by HTRF assay
Sequence of Macrophage-stimulating protein receptor (Q04912 25-304 limits assumed): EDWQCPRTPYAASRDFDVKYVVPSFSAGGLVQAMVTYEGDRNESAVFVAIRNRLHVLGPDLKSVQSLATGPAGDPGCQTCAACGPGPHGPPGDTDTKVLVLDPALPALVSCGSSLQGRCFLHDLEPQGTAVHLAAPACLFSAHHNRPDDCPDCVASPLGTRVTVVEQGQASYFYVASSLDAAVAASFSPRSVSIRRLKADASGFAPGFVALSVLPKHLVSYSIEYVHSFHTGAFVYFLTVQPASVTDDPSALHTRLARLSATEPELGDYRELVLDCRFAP
Sequence of Macrophage-stimulating protein receptor (Q04912 310-1400 limits assumed): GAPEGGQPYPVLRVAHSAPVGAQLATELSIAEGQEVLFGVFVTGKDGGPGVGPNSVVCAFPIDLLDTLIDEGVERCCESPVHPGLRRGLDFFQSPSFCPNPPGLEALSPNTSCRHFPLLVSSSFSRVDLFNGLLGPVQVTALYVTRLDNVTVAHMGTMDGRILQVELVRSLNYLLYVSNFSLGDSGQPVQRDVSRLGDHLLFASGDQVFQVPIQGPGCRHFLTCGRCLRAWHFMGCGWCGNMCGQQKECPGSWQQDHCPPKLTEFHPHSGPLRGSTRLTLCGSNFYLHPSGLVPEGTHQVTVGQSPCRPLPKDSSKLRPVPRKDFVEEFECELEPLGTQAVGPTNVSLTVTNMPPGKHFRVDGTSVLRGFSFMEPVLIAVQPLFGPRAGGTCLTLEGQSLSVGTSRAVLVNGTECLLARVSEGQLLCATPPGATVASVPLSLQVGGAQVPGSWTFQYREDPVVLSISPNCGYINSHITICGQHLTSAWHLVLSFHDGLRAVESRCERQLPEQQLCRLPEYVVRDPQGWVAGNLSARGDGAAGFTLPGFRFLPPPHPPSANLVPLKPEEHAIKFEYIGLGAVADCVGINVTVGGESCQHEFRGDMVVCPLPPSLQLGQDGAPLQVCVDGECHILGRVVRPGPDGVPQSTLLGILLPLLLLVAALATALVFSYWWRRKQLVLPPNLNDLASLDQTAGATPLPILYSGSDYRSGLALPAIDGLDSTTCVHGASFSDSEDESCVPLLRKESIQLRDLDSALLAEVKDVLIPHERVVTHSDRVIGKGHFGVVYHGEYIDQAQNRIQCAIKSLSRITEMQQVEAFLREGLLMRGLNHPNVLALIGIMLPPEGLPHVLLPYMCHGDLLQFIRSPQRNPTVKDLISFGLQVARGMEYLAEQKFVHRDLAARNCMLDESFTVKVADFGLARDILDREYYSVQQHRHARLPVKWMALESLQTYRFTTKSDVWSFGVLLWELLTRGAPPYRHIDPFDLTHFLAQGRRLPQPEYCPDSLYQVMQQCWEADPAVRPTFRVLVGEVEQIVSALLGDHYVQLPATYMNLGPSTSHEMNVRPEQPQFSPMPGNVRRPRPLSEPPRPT

[7] = biological target: Proto-oncogene tyrosine-protein kinase Src (Homo sapiens, UniProt P12931); test: Inhibition of Src by HTRF assay
Sequence of Proto-oncogene tyrosine-protein kinase Src (P12931 2-536 limits assumed): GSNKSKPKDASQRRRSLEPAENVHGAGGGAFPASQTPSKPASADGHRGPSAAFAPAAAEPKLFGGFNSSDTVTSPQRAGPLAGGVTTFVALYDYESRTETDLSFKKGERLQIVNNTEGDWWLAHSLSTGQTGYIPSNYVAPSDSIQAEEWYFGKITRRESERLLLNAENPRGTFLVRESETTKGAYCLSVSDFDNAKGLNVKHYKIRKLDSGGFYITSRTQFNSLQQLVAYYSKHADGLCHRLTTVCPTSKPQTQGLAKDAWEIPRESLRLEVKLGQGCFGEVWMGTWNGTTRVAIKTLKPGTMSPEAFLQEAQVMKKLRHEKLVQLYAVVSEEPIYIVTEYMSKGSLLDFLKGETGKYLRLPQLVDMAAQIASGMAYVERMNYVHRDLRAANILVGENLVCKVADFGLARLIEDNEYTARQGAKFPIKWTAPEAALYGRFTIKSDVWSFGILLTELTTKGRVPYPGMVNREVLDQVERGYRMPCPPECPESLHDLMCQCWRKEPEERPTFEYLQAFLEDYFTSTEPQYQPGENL

[8] = AUC (0 to infinity) in Sprague-Dawley rat at 2 mg/kg, po; assay type: ADME, organism-based; design: time infinity, dose 2 mg/kg, route oral; details: plasma
[9] = biological target: Vascular endothelial growth factor receptor 2 (Homo sapiens, UniProt P35968); test: Inhibition of KDR by HTRF assay
Mus musculus [10] = test: Inhibition of anti-CD3-induced IL2 production in BALB/c mouse at 30 mg/kg, po by ELISA relative to control; assay type: functional
Jurkat = test: Inhibition of IL2 production in human Jurkat cells stimulated with phorbol 12-myristyl 13-acetate in presence of calcium ionophore; assay type: functional, cell-based
[11] = biological target: Ribosomal protein S6 kinase beta-1 (Homo sapiens, UniProt P23443); test: Inhibition of P70S6K by HTRF assay
[12] = Protein binding in rat plasma; assay type: ADME, cell-free; details: read-out: PB (converted)
[13] = biological target: Macrophage colony-stimulating factor 1 receptor (Homo sapiens, UniProt P07333); test: Inhibition of cFMS by HTRF assay
Sequence of Macrophage colony-stimulating factor 1 receptor (P07333 whole entry): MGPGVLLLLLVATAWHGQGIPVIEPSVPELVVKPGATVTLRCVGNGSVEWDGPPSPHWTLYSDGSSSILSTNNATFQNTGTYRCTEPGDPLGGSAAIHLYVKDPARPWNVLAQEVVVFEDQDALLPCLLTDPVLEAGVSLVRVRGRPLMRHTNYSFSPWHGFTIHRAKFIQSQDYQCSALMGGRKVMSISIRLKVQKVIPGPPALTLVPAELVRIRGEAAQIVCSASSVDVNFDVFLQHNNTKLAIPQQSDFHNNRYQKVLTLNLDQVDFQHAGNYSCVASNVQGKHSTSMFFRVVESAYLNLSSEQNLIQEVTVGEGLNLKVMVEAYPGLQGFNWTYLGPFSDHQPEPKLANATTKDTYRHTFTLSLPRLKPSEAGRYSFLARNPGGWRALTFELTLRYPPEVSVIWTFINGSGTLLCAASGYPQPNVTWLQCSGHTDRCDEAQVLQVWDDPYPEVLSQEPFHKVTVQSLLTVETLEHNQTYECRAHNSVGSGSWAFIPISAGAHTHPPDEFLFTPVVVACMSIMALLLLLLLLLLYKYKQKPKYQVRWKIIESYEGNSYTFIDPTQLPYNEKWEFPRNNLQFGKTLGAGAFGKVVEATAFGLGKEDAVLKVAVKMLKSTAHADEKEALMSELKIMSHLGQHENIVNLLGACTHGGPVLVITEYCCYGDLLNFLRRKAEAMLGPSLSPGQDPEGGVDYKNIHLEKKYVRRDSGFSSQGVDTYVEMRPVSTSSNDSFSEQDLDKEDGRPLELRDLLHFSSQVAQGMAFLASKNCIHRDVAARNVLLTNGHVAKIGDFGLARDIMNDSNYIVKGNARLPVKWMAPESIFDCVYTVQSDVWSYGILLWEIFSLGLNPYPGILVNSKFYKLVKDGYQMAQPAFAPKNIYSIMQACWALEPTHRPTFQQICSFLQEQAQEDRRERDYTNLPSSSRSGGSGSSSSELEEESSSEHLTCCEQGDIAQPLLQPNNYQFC

Mus musculus [14] = test: Inhibition of anti-CD3-induced IL2 production in orally dosed BALB/c mouse by ELISA; assay type: functional; details: po
Blood [15] = test: Inhibition of anti-CD3-induced IL2 production in human whole blood by ELISA; assay type: functional, tissue-based
[16] = Inhibition of Aurora1 by HTRF assay
[17] = biological target: Tyrosine-protein kinase Fyn (Homo sapiens, UniProt P06241); test: Inhibition of Fyn by HTRF assay
Mus musculus [18] = test: Plasma concentration in BALB/c mouse at 100 mg/kg, po; assay type: ADME, organism-based; design: dose 100 mg/kg, route oral; details: in vivo
[19] = Inhibition of Aurora2 by HTRF assay
Mus musculus [20] = test: Inhibition of anti-CD3-induced IL2 production in BALB/c mouse at 100 mg/kg, po by ELISA relative to control; assay type: functional
[21] = biological target: Tyrosine-protein kinase SYK (Homo sapiens, UniProt P43405); test: Inhibition of Syk by HTRF assay
[22] = biological target: Tyrosine-protein kinase ABL1 (Homo sapiens, UniProt P00519); test: Inhibition of Abl by HTRF assay
Blood [23] = test: Inhibition of LPS-induced TNFalpha production in human whole blood by ELISA; assay type: functional, tissue-based
Plasma = test: Unbound EC50 of ligand in mouse plasma
[24] = biological target: Ribosomal protein S6 kinase alpha-5 (Homo sapiens, UniProt O75582); test: Inhibition of MSK1 by HTRF assay
[25] = biological target: Mitogen-activated protein kinase 3 (Homo sapiens, UniProt P27361); test: Inhibition of ERK1 by HTRF assay
[26] = Oral bioavailability in Sprague-Dawley rat at 2 mg/kg; assay type: ADME, organism-based; details: in vivo
Mus musculus [27] = test: Plasma concentration in BALB/c mouse at 30 mg/kg, po; assay type: ADME, organism-based; design: dose 30 mg/kg, route oral; details: in vivo
[28] = biological target: Tyrosine-protein kinase Lck (Homo sapiens, UniProt P06239)
Description: Inhibition of Lck by HTRF assay

[29] = biological target: High affinity nerve growth factor receptor (Homo sapiens, UniProt P04629); test: Inhibition of TrkA by HTRF assay
[30] = Inhibition of PKBalpha by HTRF assay
[31] = biological target: Serine/threonine-protein kinase PAK 2 (Homo sapiens, UniProt Q13177); test: Inhibition of PAK2 by HTRF assay
[32] = biological target: Serine/threonine-protein kinase pim-1 (Homo sapiens, UniProt P11309); test: Inhibition of PIM1 by HTRF assay
Sequence of Serine/threonine-protein kinase pim-1 (P11309 whole entry): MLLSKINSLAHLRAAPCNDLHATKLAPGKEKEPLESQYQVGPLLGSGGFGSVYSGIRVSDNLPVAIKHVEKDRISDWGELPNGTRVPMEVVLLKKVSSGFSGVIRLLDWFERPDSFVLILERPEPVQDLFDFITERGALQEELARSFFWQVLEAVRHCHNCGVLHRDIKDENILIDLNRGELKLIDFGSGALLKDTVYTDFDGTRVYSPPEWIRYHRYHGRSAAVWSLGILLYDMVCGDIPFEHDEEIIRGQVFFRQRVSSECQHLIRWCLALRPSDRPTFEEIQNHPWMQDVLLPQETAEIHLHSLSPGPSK

[33] = Clearance in Sprague-Dawley rat at 0.5 mg/kg, iv; assay type: ADME, organism-based; design: dose 0.5 mg/kg, route intravenous; details: in vivo
Mus musculus [34] = species: Mus musculus; test: Inhibition of anti-CD3-induced IL2 production in BALB/c mouse; assay type: functional
[35] = biological target: Tyrosine-protein kinase Lyn (Homo sapiens, UniProt P07948); test: Inhibition of Lyn by HTRF assay
[36] = Inhibition of IRK by HTRF assay
[37] = Protein binding in mouse plasma; assay type: ADME, cell-free; details: read-out: PB (converted)
[38] = biological target: Mitogen-activated protein kinase 9 (Homo sapiens, UniProt P45984); test: Inhibition of JNK2 by HTRF assay
Sequence of Mitogen-activated protein kinase 9 (P45984 whole entry): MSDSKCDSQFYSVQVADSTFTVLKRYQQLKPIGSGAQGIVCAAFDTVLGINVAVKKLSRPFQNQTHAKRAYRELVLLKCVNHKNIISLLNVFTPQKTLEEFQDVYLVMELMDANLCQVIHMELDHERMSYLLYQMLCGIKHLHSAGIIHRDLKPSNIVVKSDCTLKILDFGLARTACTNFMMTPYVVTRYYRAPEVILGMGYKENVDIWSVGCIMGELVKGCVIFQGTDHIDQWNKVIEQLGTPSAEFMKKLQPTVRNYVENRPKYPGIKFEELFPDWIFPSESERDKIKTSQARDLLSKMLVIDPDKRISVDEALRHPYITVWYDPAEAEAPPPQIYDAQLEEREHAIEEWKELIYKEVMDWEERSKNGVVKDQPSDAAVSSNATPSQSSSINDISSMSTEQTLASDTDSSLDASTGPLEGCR

[39] = Cmax in Sprague-Dawley rat at 2 mg/kg, po; assay type: ADME, organism-based; design: dose 2 mg/kg, route oral; details: in vivo
[40] = Inhibition of PKAalpha by HTRF assay
[41] = biological target: Mitogen-activated protein kinase 14 (Homo sapiens, UniProt Q16539); test: Inhibition of p38alpha by HTRF assay
[42] = biological target: T1, Tyrosine-protein kinase JAK3 (Homo sapiens, UniProt P52333); test: Inhibition of Jak3 by HTRF assay
T1 sequence (P52333 whole entry): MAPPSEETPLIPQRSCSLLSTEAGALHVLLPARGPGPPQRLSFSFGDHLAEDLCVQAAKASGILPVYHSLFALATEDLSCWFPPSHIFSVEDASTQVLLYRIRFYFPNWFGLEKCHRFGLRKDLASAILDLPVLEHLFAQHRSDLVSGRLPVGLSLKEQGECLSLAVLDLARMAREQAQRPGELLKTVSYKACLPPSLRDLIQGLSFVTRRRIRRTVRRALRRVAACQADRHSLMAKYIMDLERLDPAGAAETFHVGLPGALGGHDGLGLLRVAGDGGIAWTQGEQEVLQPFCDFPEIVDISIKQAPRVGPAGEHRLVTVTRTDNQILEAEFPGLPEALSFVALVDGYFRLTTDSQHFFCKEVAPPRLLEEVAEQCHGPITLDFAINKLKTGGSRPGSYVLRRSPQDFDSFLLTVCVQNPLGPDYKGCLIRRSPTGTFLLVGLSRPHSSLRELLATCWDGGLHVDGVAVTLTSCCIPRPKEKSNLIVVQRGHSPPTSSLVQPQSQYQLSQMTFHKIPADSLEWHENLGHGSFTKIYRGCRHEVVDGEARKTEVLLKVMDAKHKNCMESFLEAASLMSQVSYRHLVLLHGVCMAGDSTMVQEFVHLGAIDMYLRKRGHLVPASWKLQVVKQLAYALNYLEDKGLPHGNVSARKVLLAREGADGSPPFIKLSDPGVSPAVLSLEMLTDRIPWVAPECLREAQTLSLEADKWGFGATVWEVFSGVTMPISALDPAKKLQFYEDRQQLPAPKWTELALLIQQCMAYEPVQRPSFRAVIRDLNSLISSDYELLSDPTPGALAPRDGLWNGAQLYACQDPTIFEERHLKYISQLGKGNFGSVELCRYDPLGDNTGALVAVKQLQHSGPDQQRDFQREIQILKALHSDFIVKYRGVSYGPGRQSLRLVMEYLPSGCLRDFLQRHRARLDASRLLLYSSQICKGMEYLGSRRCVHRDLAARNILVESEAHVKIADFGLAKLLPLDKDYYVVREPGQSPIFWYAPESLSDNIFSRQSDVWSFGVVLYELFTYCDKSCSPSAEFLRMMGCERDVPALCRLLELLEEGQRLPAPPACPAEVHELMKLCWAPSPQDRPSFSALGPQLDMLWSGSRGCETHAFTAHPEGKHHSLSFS

[43] = Tmax in Sprague-Dawley rat at 2 mg/kg; assay type: ADME, organism-based; design: dose 2 mg/kg; details: in vivo

Compound `Cc1ccc(NC(=O)c2cccc(C(F)(F)F)c2)cc1C(=O)Nc1cnc(Nc2ccc(N3CCN(C)CC3)cc2)nc1` has a half-life [1] of 3.2 h, an IC50 (Lymphocyte) of 11 nM and a Vd [2] of 3.29 L/kg. It also gave an IC50 [3] of over 25000 nM, a concentration (Mus musculus [4]) of 176 nM and an IC50 (Angiopoietin-1 receptor) of 9950 nM. The inhibition in vivo at 10 mg/kg (Mus musculus [5]) was 53%, the IC50 [6] was over 25000 nM and the IC50 [7] was 3 nM. The AUC(0-inf) [8] was 419 ng·h/mL, the IC50 [9] was 24 nM and the inhibition in vivo at 30 mg/kg (Mus musculus [10]) was 89%. The IC50 (Jurkat) was over 20000 nM, the IC50 [11] was over 100000 nM and the fraction unbound [12] was 0.006. For the same compound, the IC50 [13] was 40 nM, the ED50 (Mus musculus [14]) was 9.4 mg/kg and the IC50 (Blood [15]) was 7 nM. For the same compound, the IC50 [16] was over 8300 nM, the IC50 [17] was 3 nM and the concentration (Mus musculus [18]) was 1540 nM. For the same compound, the IC50 [19] was over 25000 nM, the inhibition in vivo at 100 mg/kg (Mus musculus [20]) was 91% and the IC50 [21] was over 5000 nM. The IC50 [22] was 2 nM, the IC50 (Blood [23]) was 718 nM and the EC50 unbound (Plasma) was 4 nM. It also gave an IC50 [24] of over 100000 nM, an IC50 [25] of over 100000 nM and a bioavailability [26] of 22%. The concentration (Mus musculus [27]) was 434 nM, the IC50 [28] was 0.6 nM and the IC50 [29] was over 5000 nM. It also gave an IC50 [30] of over 100000 nM, an IC50 [31] of over 25000 nM and an IC50 [32] of over 30000 nM. The clearance [33] was 17.3 mL/min/kg, the Activity (Mus musculus [34]) was “Active” and the IC50 [35] was 0.9 nM. It also gave an IC50 [36] of over 5000 nM, a fraction unbound [37] of 0.022 and an IC50 [38] of 4290 nM. The Cmax [39] was 49 ng/mL, the IC50 [40] was over 85000 nM and the IC50 [41] was 5 nM. The IC50 [42] was over 25000 nM and the Tmax [43] was 4.67 h.
